Series [1] concerns the target S1P3 (Homo sapiens, UniProt Q99500). Nature of the series: competitive S1Ps cell membrane binding assay against [32P]S1P, S1P3. The following applies: Table 6.
Series [2] deals with S1P1 (Homo sapiens, UniProt P21453). Nature of the series: competitive S1Ps cell membrane binding assay against [32P]S1P, S1P1.
Source text: (§2) One way to measure affinity is use of a general competition binding assay.
The subject of series [3] is S1P2-5. Nature of the series: competitive S1Ps cell membrane binding assay against [32P]S1P, S1P2-5 reported together. The settings on record: for selectivity over S1P2-5: in words.
Source text: as §2
The target in series [4] is S1P2 (Homo sapiens, UniProt O95136). Nature of the series: competitive S1Ps cell membrane binding assay against [32P]S1P, S1P2. The following applies: Table 6.
Chain of S1P2 (O95136 whole entry, species assumed): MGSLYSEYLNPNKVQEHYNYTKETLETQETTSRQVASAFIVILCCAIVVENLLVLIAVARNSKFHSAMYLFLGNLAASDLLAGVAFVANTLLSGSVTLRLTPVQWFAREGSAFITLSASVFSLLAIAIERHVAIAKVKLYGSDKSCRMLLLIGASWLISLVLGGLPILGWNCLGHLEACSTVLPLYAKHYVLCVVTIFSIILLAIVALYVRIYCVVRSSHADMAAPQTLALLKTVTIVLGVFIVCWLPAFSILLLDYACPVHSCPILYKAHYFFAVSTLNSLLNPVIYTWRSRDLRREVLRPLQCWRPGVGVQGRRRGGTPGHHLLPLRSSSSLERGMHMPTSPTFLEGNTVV
The target of series [5] is S1P5 (Homo sapiens, UniProt Q9H228). Nature of the series: competitive S1Ps cell membrane binding assay against [32P]S1P, S1P5.
Chain of S1P5 (Q9H228 whole entry, species assumed): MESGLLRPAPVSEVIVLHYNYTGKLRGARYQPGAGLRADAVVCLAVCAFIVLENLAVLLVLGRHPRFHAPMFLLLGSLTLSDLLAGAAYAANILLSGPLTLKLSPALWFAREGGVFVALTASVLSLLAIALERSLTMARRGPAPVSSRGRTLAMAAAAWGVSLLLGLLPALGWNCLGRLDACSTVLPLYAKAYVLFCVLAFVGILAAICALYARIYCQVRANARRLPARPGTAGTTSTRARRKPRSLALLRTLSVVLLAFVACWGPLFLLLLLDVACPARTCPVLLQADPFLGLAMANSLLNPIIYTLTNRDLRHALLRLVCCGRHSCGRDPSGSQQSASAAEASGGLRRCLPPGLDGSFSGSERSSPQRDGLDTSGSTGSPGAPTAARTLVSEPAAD
Source text: as §2
The target of series [6] is T1, S1P4 (Homo sapiens, UniProt O95977).
T1 sequence (O95977 1-384): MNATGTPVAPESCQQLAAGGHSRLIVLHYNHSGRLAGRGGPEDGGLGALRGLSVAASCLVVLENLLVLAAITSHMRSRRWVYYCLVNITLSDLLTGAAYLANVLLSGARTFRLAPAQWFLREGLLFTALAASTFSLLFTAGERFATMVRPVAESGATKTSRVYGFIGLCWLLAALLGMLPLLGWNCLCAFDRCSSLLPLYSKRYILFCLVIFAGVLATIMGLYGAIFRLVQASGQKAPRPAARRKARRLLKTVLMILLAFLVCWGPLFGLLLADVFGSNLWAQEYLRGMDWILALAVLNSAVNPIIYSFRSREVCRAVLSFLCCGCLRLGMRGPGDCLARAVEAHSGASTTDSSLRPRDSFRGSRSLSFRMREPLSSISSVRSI
Nature of the series: competitive S1Ps cell membrane binding assay against [32P]S1P, S1P4. The settings on record: Table 6; read-out: IC50 for S1P4.

Series [7] can be described thus: Ex-vivo rat biodistribution and EAE rat PET studies of [18F]TZ82112. The following applies: in words.
A short description of series [8]: HPLC radiometabolite analysis of nonhuman primate plasma, [18F]TZ82112. The settings on record: NHP plasma compared with rat plasma, in words. The format is in vivo. The text has this: (§1) Considering the high NHP brain uptake and clinically favorable pharmacokinetics compared to other F-18 S1PR1 radiotracers such as [^18F]FCS1P1 and [^18F]4877, we believe [^18F]TZ82112 is worth to transfer into clinical evaluation to confirm [18F]TZ82112 is the best S1PR1 radiotracer for clinical assessment of the neuroinflammation status by measurement of the S1PR1 receptor expression level. On the other side, as a S1PR1 radiotracer, [^18F]TZ82112 has its limitation for preclinical investigation because it quickly metabolites to form a lipophilic radiometabolite which will increase noise signal for PET measurement of S1PR1 expression in inflamed tissues.

Series [9] has as its system S1PR1. Nature of the series: NHP PET brain imaging blocking studies. Type of series: in vivo, nonhuman primate. The following applies: NHP PET self-blocking, in words.
A short description of series [10]: HPLC radiometabolite analysis of rat plasma and rat brain, [18F]TZ82112. The format is in vivo. The following applies: in words.
Source text: as §1

Series [11] has as its target T2, S1P1 (Mus musculus, UniProt O08530).
T2 construct: from tissue; host or cells: living mice (whole body, brain, tissues)
Nature of the series: PET with [18F]TZ4877 in S. aureus infected mice. The format is in vivo. The settings on record: microPET, in words. Here is the method: Mice were euthanized at 30 min, and S. aureus was injected 24 hours prior to radiotracer injection. […] IHC staining was used for confirmation in infected versus sham controls (FIG. 12E). Increasing signals of the inflammation related cytokines and chemokines were detected in liver.

Where [12] appears, read: read-out: IC50 (nM) S1P1, Table 7.
Setting [13] is: Table 7, read-out: IC50 (nM) S1P2-5.
Where [14] appears, read: Table 5, read-out: IC50 (nM) S1P5.
Where [15] appears, read: Table 6, read-out: IC50 for S1P5.

Several values for one entry are separate records, joined by “and”; a condition that tells them apart may be missing. Equal entries are not always repeated. Where two headings read alike, the source gives them in different places.

Chain of S1P1 (Homo sapiens, UniProt P21453) (P21453 whole entry, species assumed): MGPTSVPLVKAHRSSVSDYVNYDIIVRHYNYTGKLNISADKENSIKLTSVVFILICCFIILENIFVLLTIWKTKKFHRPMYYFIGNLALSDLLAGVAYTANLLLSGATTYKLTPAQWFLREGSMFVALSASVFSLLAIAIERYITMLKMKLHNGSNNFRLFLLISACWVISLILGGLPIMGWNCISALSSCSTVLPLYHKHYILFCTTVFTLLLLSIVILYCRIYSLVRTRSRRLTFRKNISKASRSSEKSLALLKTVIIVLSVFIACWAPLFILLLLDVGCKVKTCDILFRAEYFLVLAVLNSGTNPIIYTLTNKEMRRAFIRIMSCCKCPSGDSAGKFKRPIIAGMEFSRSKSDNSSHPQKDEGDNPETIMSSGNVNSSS
Chain of S1P3 (Q99500 whole entry, species assumed): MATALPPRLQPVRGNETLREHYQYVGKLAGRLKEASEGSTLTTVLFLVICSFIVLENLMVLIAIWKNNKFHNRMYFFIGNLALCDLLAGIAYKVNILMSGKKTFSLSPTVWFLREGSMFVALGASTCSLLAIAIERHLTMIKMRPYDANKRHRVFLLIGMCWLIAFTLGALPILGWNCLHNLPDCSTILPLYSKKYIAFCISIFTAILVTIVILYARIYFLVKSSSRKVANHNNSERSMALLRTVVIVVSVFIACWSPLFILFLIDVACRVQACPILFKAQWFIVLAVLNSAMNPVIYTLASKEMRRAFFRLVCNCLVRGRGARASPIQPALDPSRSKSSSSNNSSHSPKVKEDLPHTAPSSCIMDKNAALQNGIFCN
T2 sequence (O08530 whole entry): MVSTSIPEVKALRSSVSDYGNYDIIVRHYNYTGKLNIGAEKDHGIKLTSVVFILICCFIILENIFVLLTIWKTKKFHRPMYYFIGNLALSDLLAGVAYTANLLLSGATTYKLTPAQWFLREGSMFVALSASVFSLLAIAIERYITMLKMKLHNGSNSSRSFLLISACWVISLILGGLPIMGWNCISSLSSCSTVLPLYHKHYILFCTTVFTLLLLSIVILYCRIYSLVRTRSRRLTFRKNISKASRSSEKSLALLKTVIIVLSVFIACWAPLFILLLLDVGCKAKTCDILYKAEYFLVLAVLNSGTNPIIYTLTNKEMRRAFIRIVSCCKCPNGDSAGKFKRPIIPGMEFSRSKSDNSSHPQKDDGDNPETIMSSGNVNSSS

Regarding `Cc1ccccc1-c1ccc(-c2nc(-c3ccc(CN(C)CCCC(=O)O)c(F)c3)no2)cc1C(F)(F)F` [TZ82-48], the IC50 (in general, the midpoint of a concentration-inhibition curve) was 189 nM in series [1]; below 20 nM in series [2] (IC50 for S1P1, running text); 0.8 ± 0.2 nM in [2] (setting [12]); above 1000 nM in series [3] (setting [13]); above 1000 nM in series [4]; 23.1 nM in series [5] (setting [14]). Also, the values for the IC50 in series [5] (setting [15]) and in [6] were 194 nM and above 1000 nM, respectively. The “IC50 for S1P1 (nM)” value in series [2] (Table 6, single determinations) is on record as “Not detected”. Also, the “selectivity over S1P2-5” value in series [3] is listed as “good selectivity”.
As for `CN(CCCO)Cc1ccc(-c2noc(-c3ccc(OCCF)c(C(F)(F)F)c3)n2)cc1F` [TZ82-112], the IC50 is 746 nM in series [1]; 15.8 nM in [2] (IC50 (nM) S1P1, Table 5); 15.8 nM and 2.03 nM and 8.17 nM in series [2] (IC50 for S1P1 (nM), Table 6, single determinations); above 1000 nM in [4]; 234 nM in series [5] (setting [14]); above 1000 nM in series [5] (setting [15]). Besides, in [6], the IC50 was above 1000 nM.
Regarding `Cc1ccccc1-c1ccc(-c2nc(-c3ccc(CN(C)CC(=O)O)c(F)c3)no2)cc1C(F)(F)F` [TZ82-47], in [1], the “IC50 for S1P3 (nM)” value was “Not fit”. The IC50 was below 20 nM in series [2] (IC50 for S1P1, running text); 7.6 ± 0.2 nM in series [2] (setting [12]); above 1000 nM in [3] (setting [13]); above 1000 nM in series [4]; 77.3 nM in series [5] (setting [14]); above 1000 nM in series [6]. Also, the “IC50 for S1P1 (nM)” value in series [2] (Table 6, single determinations) is listed as “Not detected”. Moreover, in [3], the “selectivity over S1P2-5” value is “good selectivity”. The “IC50 for S1P5 (nM)” value in [5] (Table 6) was “Not fit”.
`Cc1ccccc1-c1ccc(-c2nc(-c3ccc(CN(C)CCO)c(F)c3)no2)cc1C(F)(F)F` [TZ82-51]: the IC50 is 454 nM in series [1], above 1000 nM in [4] and above 1000 nM in [6].
`CN(CCCO)Cc1ccc(-c2noc(-c3ccc(OCC[18F])c(C(F)(F)F)c3)n2)cc1F` [[^18F]TZ82112]: in series [7] (EAE rat model of MS, PET), the “spinal cord uptake compared to the normal controls” value is given as “increased spinal cord uptake”. Also, the “brain uptake and washout” value in series [7] (ex-vivo rat biodistribution) was “high initial brain uptake and good brain washout kinetics”. Moreover, the “percentage of the same radiometabolite in plasma” value in series [8] is “much lower”. For the same compound, the “brain uptake after pretreatment with cold TZ82112” value in series [9] was “reduce the its brain uptake”. Besides, in [10] (rat brain tissue samples), the “radiometabolite in brain tissue” value was “no radioactive metabolite”. For the same compound, the radiometabolite in plasma entry in series [10] (rat plasma) was “quickly generated a high percentage of a radiometabolite”.
In the case of `Cc1ccccc1-c1ccc(-c2nc(-c3ccc(CN(C)CCCO)c(F)c3)no2)cc1C(F)(F)F` [TZ82-52], the IC50 is 418 nM in series [1], above 1000 nM in series [4] and above 1000 nM in series [6].
Turning to `OCCOCc1ccc(-c2noc(-c3ccc(OCC[18F])c(C(F)(F)F)c3)n2)cc1` [[^18F]TZ4877], the “brain uptake, infected versus sham mice” value in series [11] is given as “higher uptake in infected mice”. For the same compound, the IC50 in [3] (read-out: IC50 for S1P2-5) is above 1000 nM.
As for `CN(CCC(=O)O)Cc1ccc(-c2noc(-c3ccc(OCCF)c(C(F)(F)F)c3)n2)cc1F` [TZ82-24], the IC50 in series [1], in series [4] and in series [6] was above 1000 nM throughout.

The record behind these values is patent publication US20240228448A1 (Washington University, priority 2021, published 2024).
